Assay results: patent EP0236948A2, “Novel compounds WK-142 and process for preparing the same” (KITASATO KENKYUSHO, priority 1986, dated 1987)
Non-standard residues stand in square brackets, D forms with d. Residues, ends and D or L forms follow the SMILES beside them. *: point of attachment. Sta = CC(C)C[C@H](N)[C@@H](O)CC(=O)O; Isovaleryl = CC(C)CC(=O)*

Legend:
[1] = biological target: T1, pepsin from coats of pig's stomach (Sus scrofa, UniProt P00791); experiment: Pepsin-inhibiting activity (method of Anson et al); type: biochemical; settings: pepsin from coats of pig's stomach (P7012, Sigma)
T1 construct: using pepsin from coats of pig's stomach (P7012 manufactured by Sigma Chemical Inc.); purchased Sigma Chemical Inc. P7012; host or cells: pig stomach mucosa
T1 sequence (P00791 60-385): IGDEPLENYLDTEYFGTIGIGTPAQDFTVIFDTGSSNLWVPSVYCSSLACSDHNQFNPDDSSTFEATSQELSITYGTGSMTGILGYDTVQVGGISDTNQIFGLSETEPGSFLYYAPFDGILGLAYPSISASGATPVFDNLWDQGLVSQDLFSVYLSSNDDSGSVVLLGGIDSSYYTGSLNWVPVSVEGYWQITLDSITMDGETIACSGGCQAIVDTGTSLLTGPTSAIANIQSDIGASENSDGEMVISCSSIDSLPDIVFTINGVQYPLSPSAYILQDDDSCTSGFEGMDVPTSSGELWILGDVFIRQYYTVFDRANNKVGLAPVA
Method: • (1) Pepsin-Inhibiting Activity: The pepsin-inhibiting activity was measured in terms of IC50 value according to the method of Anson et al [Journal of General Physiology 22, 79 (1938)] using pepsin from coats of pig's stomach (P7012 manufactured by Sigma Chemical Inc.).

[2] = system: renin obtained from pig's kidney; experiment: Renin-inhibiting activity (method of Ikeda et al); type: biochemical

Structure (SMILES)	IC50 [1]	IC50 [2]
CC(C)CC(=O)NC(C(=O)NC(C(=O)NC(CC(C)C)C(O)CC(=O)NC(C)C(=O)NC(Cc1ccccc1)C(O)CC(=O)O)C(C)C)C(C)C (stereo not drawn) [compound A]	10 nM	
CC(C)CC(=O)N[C@H](C(=O)N[C@H](C(=O)N[C@@H](CC(C)C)[C@@H](O)CC(=O)N[C@@H](C)C(=O)N[C@@H](CC(C)C)[C@@H](O)CC(=O)O)C(C)C)C(C)C [pepstatin A] (Isovaleryl-VV[Sta]A[Sta]-OH)	3 nM	470 nM
